{"source": "PubChem BioAssay AID1996", "data": [{"conditions": "buffer; pH 7.4; 200.0 µM", "units": {"solubility kinetic": "µg/mL"}, "values": [{"smiles": "Cc1ccc(OCCCN2C(=O)C(=O)c3cc(C)ccc32)cc1", "solubility kinetic": "< 0.7"}, {"smiles": "Cc1ccc(-c2onc3ccc(C4OCCO4)cc23)cc1", "solubility kinetic": 1}, {"smiles": "CC(=O)Nc1ccc(-c2csc(Nc3cc(C)ccn3)n2)cc1", "solubility kinetic": 0.4}, {"smiles": "CCCc1nc2oc3c(NCC(C)O)ncnc3c2c2c1CCCC2", "note": "(stereo not given)", "solubility kinetic": 0.4}, {"smiles": "Cc1cc2c(cc1S(=O)(=O)N(C)c1ccccc1)n(C)c(=O)n2C", "solubility kinetic": "> 51.8"}, {"smiles": "Cc1c(C(=O)Nc2cccc(S(=O)(=O)N3CCOCC3)c2)oc2ccccc12", "solubility kinetic": 2.3}, {"smiles": "COc1ccc(NC(=O)N[C@@H](CCSC)C(=O)O)cc1OC", "solubility kinetic": "> 49.3"}, {"smiles": "CC(=O)Nc1ccc(S(=O)(=O)N2CCN3CCCC3C2)cc1", "note": "(stereo not given)", "solubility kinetic": "> 48.5"}, {"smiles": "CC(OC(=O)c1ccccc1)C(=O)NCc1ccco1", "note": "(stereo not given)", "solubility kinetic": "> 41"}, {"smiles": "O=c1c2ccccc2nc(-c2ccccc2Cl)n1-c1ccc(O)cc1", "solubility kinetic": "> 52.3"}, {"smiles": "COc1ccccc1-c1cc(C(=O)N2CCCc3ccccc32)no1", "solubility kinetic": 3.1}, {"smiles": "Nc1cc(=O)[nH]c(SCC(=O)Nc2cccc(S(=O)(=O)N3CCCCC3)c2)n1", "solubility kinetic": "> 63.5"}, {"smiles": "COc1ccc(CNC(=S)Nc2cccc(F)c2)cc1", "solubility kinetic": 14.6}, {"smiles": "C=CCOc1ccc(CNc2ccc3[nH]c(=O)[nH]c3c2)cc1", "solubility kinetic": 7.9}, {"smiles": "O=C(Nc1cccc(S(=O)(=O)N2CCCCC2)c1)c1ccc(Cl)nc1", "solubility kinetic": 4.4}, {"smiles": "O=S(=O)(CCN1CCCCC1)Oc1ccc(Cl)cc1Cl", "solubility kinetic": 50.5}, {"smiles": "CC(NC(=O)c1ccc(Br)o1)c1ccc(-n2ccnc2)cc1", "note": "(stereo not given)", "solubility kinetic": "> 54"}, {"smiles": "O=C1NC(Cc2ccccc2)C(=O)Nc2ccc(Br)cc21", "note": "(stereo not given)", "solubility kinetic": 15.7}, {"smiles": "COc1ccc(C(=O)Nc2ccc(N3CCCC3)cc2)cc1Br", "solubility kinetic": "< 0.4"}, {"smiles": "CC(C)(C)c1cc(NS(=O)(=O)c2ccc(Br)s2)no1", "solubility kinetic": 30.1}, {"smiles": "Oc1ccc2c(c1)c1c3n2CCNC3CCC1", "note": "(stereo not given)", "solubility kinetic": 31.3}, {"smiles": "O=C(O)c1ccc(CNC(=O)c2ccc3c(c2)C(=O)N(Cc2cccnc2)C3=O)cc1", "solubility kinetic": "> 62.3"}, {"smiles": "Nc1cccc2cc(-c3ccccc3)oc12", "solubility kinetic": 2.4}, {"smiles": "COc1ccc(C(=O)CC(=O)C(=O)Nc2ccccc2)cc1", "solubility kinetic": 34.6}, {"smiles": "Cc1cccc(NC(=O)c2ccc3c(c2)OCCO3)n1", "solubility kinetic": 32.8}, {"smiles": "CCOc1ccc2[nH]c3c(=O)n(CCC4=CCCCC4)cnc3c2c1", "solubility kinetic": 10.7}, {"smiles": "N[C@@H](Cc1cc(Br)c(O)c(Br)c1)C(=O)O", "solubility kinetic": "> 50.8"}, {"smiles": "Cc1ccc(C(=O)Nc2ccccc2C(=O)N2CCCCCC2)cc1", "solubility kinetic": "> 50.5"}, {"smiles": "CC1CC(C)CN(C(=O)c2cccc(NC(=O)CC3SC(N4CCCCC4)=NC3=O)c2)C1", "note": "(stereo not given)", "solubility kinetic": 67.1}, {"smiles": "O=C(O)c1ccccc1Nc1ccnc(C(F)(F)F)c1", "solubility kinetic": "> 42.3"}, {"smiles": "Cc1cc(C(=O)Nc2ccccc2[N+](=O)[O-])cs1", "solubility kinetic": 1.6}, {"smiles": "NC(=O)C1CCN(C(=O)c2ccccc2CCc2ccccc2)CC1", "solubility kinetic": "> 50.5"}, {"smiles": "O=C1SCCC1NC(=O)C(c1ccccc1)c1ccccc1", "note": "(stereo not given)", "solubility kinetic": "> 46.7"}, {"smiles": "COc1cc(C(=O)NCCC(=O)NC(C)C)cc(OC)c1OC", "solubility kinetic": "> 48.7"}, {"smiles": "O=C(CC1NC(=S)NC1=O)c1ccc(Cl)cc1", "note": "(stereo not given)", "solubility kinetic": 3.2}, {"smiles": "CC(O)c1nc2ccccc2n1CCCc1ccccc1", "note": "(stereo not given)", "solubility kinetic": "> 42.1"}, {"smiles": "Nc1ncnc(Nc2ccccc2)n1", "solubility kinetic": "> 28.1"}, {"smiles": "N#C/C(=C\\c1ccc([N+](=O)[O-])cc1)c1ccccn1", "solubility kinetic": 4.7}, {"smiles": "CCCCCC1CCC(C(=O)NCCN2CCOCC2)CC1", "note": "(stereo not given)", "solubility kinetic": 35.6}, {"smiles": "COc1c(-c2ccc([N+](=O)[O-])cc2[N+](=O)[O-])c(=O)n(C)c(=O)n1C", "solubility kinetic": "> 50.4"}, {"smiles": "CCN(CC(=O)Nc1ccc(C(C)=O)cc1)CC(=O)Nc1ccc2c(c1)OCCO2.O=C(O)C(=O)O", "solubility kinetic": "> 75.2"}, {"smiles": "Cc1ccccc1OCCn1ccnc1", "solubility kinetic": 24.5}, {"smiles": "Cc1ccc(NS(=O)(=O)c2ccc(C(=O)NCc3ccccn3)cc2)cc1", "solubility kinetic": 53.8}, {"smiles": "COc1ccc(Nc2c(-c3ccco3)nc3cccc(C)n23)cc1", "solubility kinetic": 1.2}, {"smiles": "Cc1ccccc1NC(=O)Nc1cnccn1", "solubility kinetic": 12.4}, {"smiles": "O=C1CC(Nc2cc(=O)[nH]c(=O)[nH]2)C(=O)N1c1ccccc1Cl", "note": "(stereo not given)", "solubility kinetic": 39.4}, {"smiles": "CCc1ccc(NC(=O)CCc2ccc(C)o2)cc1", "solubility kinetic": 5.3}, {"smiles": "Cc1ccc(S(=O)(=O)Nc2c(C)nn(C)c2C)c(C)c1", "solubility kinetic": "> 44"}, {"smiles": "CC1Cc2ccccc2N1Cc1cccc([N+](=O)[O-])c1", "note": "(stereo not given)", "solubility kinetic": 3.6}, {"smiles": "Cc1cccc(C)c1OCC(=O)NCC1CCCO1", "note": "(stereo not given)", "solubility kinetic": 39.5}, {"smiles": "CC(C)CCNC(=O)c1ccc(-n2cnc3cccnc32)cc1", "solubility kinetic": "> 46.3"}, {"smiles": "CN(CC(=O)Nc1ccccc1Cl)CC(=O)N(C)c1c(N)n(Cc2ccccc2)c(=O)[nH]c1=O", "solubility kinetic": 65.2}, {"smiles": "CCCc1nc2sc3c(=O)[nH]cnc3c2c2c1CCCC2", "solubility kinetic": 0.4}, {"smiles": "Cc1cc(C)nc(SCC(=O)c2ccc(F)cc2F)n1", "solubility kinetic": "> 44.1"}, {"smiles": "COc1cccc2[nH]c(C(=O)NC(C)c3ccccc3)cc12", "note": "(stereo not given)", "solubility kinetic": "> 44.2"}, {"smiles": "CC(NC(=O)CN1CCN(c2cccc(Cl)c2)CC1)c1ccccc1", "note": "(stereo not given)", "solubility kinetic": 42.4}, {"smiles": "Cc1cc(-c2nc3ccccc3[nH]2)ccc1N", "solubility kinetic": "> 33.5"}, {"smiles": "C=CCOc1ccc(/C=C2/C(=O)ON=C2C)cc1OCC", "solubility kinetic": 28.3}, {"smiles": "Cc1ccccc1C(=O)NC(=S)NC1CCS(=O)(=O)C1", "note": "(stereo not given)", "solubility kinetic": "> 46.9"}, {"smiles": "Cn1c(N)c(C(=O)COC(=O)c2ccccc2C(=O)c2ccc(Cl)c([N+](=O)[O-])c2)c(=O)n(C)c1=O", "solubility kinetic": 3.2}, {"smiles": "Cc1cc(C)c2c(n1)sc1c(N3CCN(C)CC3)ncnc12", "solubility kinetic": 39.6}, {"smiles": "O=C(COC(=O)CSc1ccc(Cl)cc1)Nc1ccc2[nH]c(=O)[nH]c2c1", "solubility kinetic": 13.5}, {"smiles": "CCOC(=O)c1c(C)nc(C)c2c(=O)oc3ccccc3c12", "solubility kinetic": "< 0.6"}, {"smiles": "CC1CN(C(=O)COC(=O)c2ccc(Cl)nc2)CC(C)O1", "note": "(stereo not given)", "solubility kinetic": 42.3}, {"smiles": "CCN1C(=O)c2ccc(C(=O)Nc3ncc(C)s3)cc2C1=O", "solubility kinetic": 5.8}, {"smiles": "COC(=O)c1oc(-c2ccc(Cl)cc2)nc1C", "solubility kinetic": 2}, {"smiles": "Cc1ccsc1CNC1CCCCC1", "solubility kinetic": 24.1}, {"smiles": "Cc1cnc(C(=O)OCC(=O)c2cccc3ccccc23)cn1", "solubility kinetic": 36.1}, {"smiles": "COc1ccccc1NC(=O)c1ccc(NC(=O)c2ccco2)cc1", "solubility kinetic": 8.5}, {"smiles": "CCOC(=O)c1sc(-c2ccccn2)nc1C", "solubility kinetic": 23.4}, {"smiles": "Cc1cccc(OCC(=O)OCC(=O)Nc2ccc(Cl)cn2)c1", "solubility kinetic": 32.5}, {"smiles": "Clc1ccc(N=C2SCCS2)cc1", "solubility kinetic": 11}, {"smiles": "O=[N+]([O-])c1ccccc1S(=O)(=O)N1CCN(c2ccccc2)CC1", "solubility kinetic": 7.2}, {"smiles": "Cc1ccc(-c2cc(C(=O)N3CCC4(CC3)OCCO4)no2)cc1", "solubility kinetic": 44}, {"smiles": "NC(=O)C1CCN(C(=O)CC2(CC(=O)O)CCCC2)CC1", "solubility kinetic": "> 44.5"}, {"smiles": "Cc1ccnc(NC(=O)CCC(=O)c2cccs2)c1", "solubility kinetic": "> 41.2"}, {"smiles": "COc1ccc(CC(=O)NCCCc2ccccc2)cc1OC", "solubility kinetic": "> 47"}, {"smiles": "CC1CCCC(C)N1C(=O)CSc1nc(N)cc(N)n1", "note": "(stereo not given)", "solubility kinetic": "> 44.3"}, {"smiles": "COc1ccc(N2CCN(C(=S)Nc3ccccc3)CC2)cc1", "solubility kinetic": 1.3}, {"smiles": "CC(C)NC(=O)COC(=O)c1ccccc1C(=O)c1ccccc1", "solubility kinetic": "> 48.8"}, {"smiles": "CNCCc1c[nH]c2ccc(O)cc12.O=C(O)C(=O)O", "solubility kinetic": "> 42"}, {"smiles": "COC(=O)CC(c1ccc(C(C)C)cc1)n1cccc1", "note": "(stereo not given)", "solubility kinetic": 2.5}, {"smiles": "COc1ccc(OC)c(S(=O)(=O)NC2CC2)c1", "solubility kinetic": "> 38.6"}, {"smiles": "CCOc1ccc(CN(C)CC(=O)NCc2ccccc2)cc1", "solubility kinetic": 34.8}, {"smiles": "Cc1ccc(C)c(NC(=O)c2ccc3nccnc3c2)c1", "solubility kinetic": 6.4}]}]}
